Results: article PMC8708704, “Discovery of New Chemical Tools against Leishmania amazonensis via the MMV Pathogen Box” (Pharmaceuticals, 2021)

These compounds were tested on Leishmania amazonensis promastigotes (assay: Leishmanicidal activity against promastigotes (alamarBlue assay; screening at 10 µM and IC50)). Conditions: first screening, 10 µM, 72 h.
Format: cell-based
Description: For the experiments, promastigotes of Leishmania amazonensis strain (MHOM/BR/77/LTB0016) were used; they were maintained in RPMI 1640 medium (Gibco, Massachusetts, USA) at 26 °C. […] Subsequently, the plates were analyzed on an EnSpire multimode plate reader (PerkinElmer, MA, USA) to measure their fluorescence after 72 h. […] To this end, serial dilutions were performed in 96 well plates, and incubated with the parasites for 72 h after adding alamarBlue®. Next, the plates were analyzed on the EnSpire plate reader and the IC50 values were calculated by using SigmaPlot 14.0 (Systat Software Inc., Chicago, IL, USA). Each concentration was tested in duplicate and in three independent experiments for all the compounds.

Row | SMILES | % of inhibition at 10 µM (against L. amazonensis promastigotes)
1 | CC(C)n1nc(-c2cc3c(Cl)cccc3[nH]2)c2c(N)ncnc21 [MMV688417] | 87%
2 | O[C@@H](c1cc(C(F)(F)F)nc2c(C(F)(F)F)cccc12)[C@H]1CCCCN1 [MMV000016, reference compound] | 86%
3 | N=C(N)c1ccc(OCCCCCOc2ccc(C(=N)N)cc2)cc1 [MMV000062, reference compound] | 89%
4 | CNc1nnc(Sc2cnn(-c3ccccc3)c(=O)c2Cl)s1 [MMV688763] | 86%
5 | O=C(Nc1ccc(C(F)(F)F)c(C(F)(F)F)c1)c1cc(Cl)ccc1O [MMV687807] | 90%
6 | Nc1ccc2ncnc(Nc3ccc(OCc4cccc(F)c4)c(Cl)c3)c2c1 [MMV688273] | 79%
7 | CC1(O)CC(c2nc(-c3ccc4ccc(-c5ccccc5)nc4c3)c3c(N)nccn23)C1 (stereo not shown) [MMV676605] | 53%
8 | Cc1nc(-c2ccccn2)nc(N2CCC(Cc3ccccc3)C2)c1Cl (stereo not shown) [MMV659004] | 87%
9 | Cc1ccc(S(=O)(=O)n2cc(-c3ccnc(N)c3)c3cc(Br)cnc32)cc1 [MMV024114] | 92%
10 | COC(=O)c1c(NC(=O)c2c(F)c(F)c(F)c(F)c2F)sc2c1CCCCC2 [MMV461553] | 88%
11 | O=C(c1ccco1)N(CCCn1ccnc1)c1nc2c(Cl)cccc2s1 [MMV688936] | 90%
12 | COc1nc2ccc(Br)cc2cc1[C@@H](c1ccccc1)[C@@](O)(CCN(C)C)c1cccc2ccccc12 [MMV689758, reference compound] | 90%
13 | Brc1cncc(-c2cc(NCCCn3ccnc3)nc(-c3ccccc3)n2)c1 [MMV661713] | 84%
14 | CC(=O)OC[C@H]1O[C@@H]([S-])[C@H](OC(C)=O)[C@@H](OC(C)=O)[C@@H]1OC(C)=O.CC[PH+](CC)CC.[Au] [MMV688978, reference compound] | 90%
15 | CN1CCN(S(=O)(=O)c2ccc(-c3ccc4c(Nc5ncc(Cl)cn5)ccnc4c3)cc2)CC1 [MMV688283] | 85%
16 | CCCCOC(=O)Nc1cc2[nH]c(C3CCCCC3)nc2cc1N1CCCC1 [MMV687730] | 87%
17 | COc1cccc(-n2nnnc2S(C)(=O)=O)c1 [MMV272144] | 89%
18 | c1coc(CNc2nc(N3CCCCC3)nc3ccccc23)c1 [MMV676401] | 84%
19 | CCOC(=O)c1c(NC(=O)c2c(F)c(F)c(F)c(F)c2F)sc(C(N)=O)c1C [MMV153413] | 86%
20 | CCOc1ccc(-c2nc(CNCCc3ccc(F)cc3)cs2)cc1 [MMV688938] | 85%
21 | Cc1[nH]c2ccccc2c1C(c1cccs1)N1CCN(C)CC1 (stereo not shown) [MMV688768] | 86%
22 | N#Cc1nc(-c2ccccc2)oc1S(=O)(=O)c1ccc(Cl)cc1 [MMV676412] | 93%
23 | C[C@]1(COc2ccc(N3CCC(Oc4ccc(OC(F)(F)F)cc4)CC3)cc2)Cn2cc([N+](=O)[O-])nc2O1 [MMV688262] | 86%

Row | SMILES | % of inhibition at 10 µM (against L. amazonensis promastigotes)
24 | COc1ccc2nccc(NC(=O)C3CCN(CCc4ccc(Cl)cc4)CC3)c2n1 [MMV688844] | 80%
25 | CC(C)N=c1cc2n(-c3ccc(Cl)cc3)c3ccccc3nc-2cc1Nc1ccc(Cl)cc1 [MMV687800, reference compound] | 88%
26 | CO/N=C(/C(=O)OC)c1ccccc1CO/N=C(/C)c1cccc(C(F)(F)F)c1 [MMV688754] | 76%
27 | Cc1cnc(N2CCN[C@@H](Cc3ccccc3)C2)nc1Oc1ccc(-n2ccnc2)cc1 [MMV687765] | 82%
28 | O=C(Nc1cccc(Cl)c1)c1cnc(N2CCN(c3ccncc3)CC2)c(Cl)c1 [MMV024406] | 92%
29 | CCc1c(C)nc(-n2nc(C)cc2NC(=O)c2ccccc2SC)[nH]c1=O [MMV676477] | 92%
30 | NCCN(C(=O)c1ccc(Cl)cc1Cl)c1ccc(OCc2ccc(Cl)cc2)cc1 [MMV688371] | 89%
31 | Cc1ccc(NC(=O)c2nc[nH]c2C(=O)Nc2nc3ccccc3[nH]2)c(C)c1 [MMV011903] | 86%
32 | NC(N)=Nc1ccc(-c2ccc(-c3ccc(N=C(N)N)cc3Cl)o2)c(Cl)c1 [MMV688179] | 86%
33 | Cc1ccc2oc(-c3cc(NC(=O)Cc4ccccc4)ccc3Cl)nc2c1 [MMV676509] | 80%
34 | CS(=O)(=O)c1ccc(C(=O)N(CC2CCCO2)c2nc3ccccc3s2)cc1[N+](=O)[O-] (stereo not shown) [MMV688761] | 88%
35 | Cc1cc(C2=NOC(c3cc(Cl)c(F)c(Cl)c3)(C(F)(F)F)C2)ccc1C(=O)NCc1ccc2c(c1)C(C)(C)OB2O (stereo not shown) [MMV687776] | 52%
36 | CN(C)c1cc(NC(=O)Nc2ccccc2)c2ccccc2n1 [MMV006901] | 85%
37 | Cc1ncc(-c2ccnc(Nc3ccc(S(C)(=O)=O)cc3)n2)n1C(C)C [MMV676604] | 66%
38 | Cc1[nH]c2cc(F)cc(F)c2c(=O)c1-c1ccc(Oc2ccc(OC(F)(F)F)cc2)cc1 [MMV671636] | 66%
39 | CCC(Sc1nc2ccccc2o1)C(=O)Nc1nccs1 (stereo not shown) [MMV676383] | 83%
40 | CC(c1cc(Cl)cc(Cl)c1)N(C)c1ncc2c(N)nc(N)nc2n1 (stereo not shown) [MMV689437] | 89%
41 | CC(C)=CCC/C(C)=C\CNCCNC1C2CC3CC(C2)CC1C3 (stereo not shown) [MMV687273] | 89%
42 | COc1ccc(Oc2ccc([C@@H](C)N(C)c3ncc4c(N)nc(N)nc4n3)cc2)cc1 [MMV690102] | 89%
43 | Cc1cc(NCCc2ccccc2)nc(NC(=N)Nc2ccc(Cl)cc2)n1 [MMV021660] | 87%
44 | Cc1ccc(-c2nc(CN(Cc3ccccn3)C(C)C)cs2)o1 [MMV1088520] | 89%
45 | O=C(Nc1ccc(F)c(-c2nc3ncc(-c4ccccc4)cc3[nH]2)c1)N1CCCC1 [MMV688372] | 87%
46 | COc1cccc(-c2nc3c(N4CCCC4)cccc3n2CC2CCCN2)n1 (stereo not shown) [MMV687703] | 85%
